PMC340942, “Engineered Biosynthesis of Regioselectively Modified Aromatic Polyketides Using Bimodular Polyketide Synthases” (PLoS Biology, 2004)
≈ marks a conversion by molar mass, not a printed value.

Assays:
[1] = Stability of purified compounds at room temperature; assay type: physicochemical
[2] = system: human mammary adenocarcinoma MCF-7 cells; assay: Cytotoxicity against MCF-7 cells (colorimetric MTT assay); assay type: cell-based; settings: MCF7, 120 h, IC50 recorded after 5 d of drug addition, read-out: IC50, cytotoxic activity against MCF-7 cells
Experimental: As described above, the biosynthetic engineering methods reported here have yielded practical routes for the production of several new as well as known anthraquinone compounds. Given the track record of this family of natural products as pharmacologically active molecules, compounds 3, 4, 9, and DMAC were assayed for cytotoxic activities against human mammary adenocarcinoma MCF-7 cells. Apoptosis was observed after 24 h of drug treatment, and IC50 values were recorded after 5 d of drug addition. […] Thus inserting the hydroxyl group at C-9 results in a 10-fold increase in cytotoxic activity.
The studies were performed as described by Hori et al (1993). The cells were maintained at 37°C and growth was measured with the colorimetric MTT assay after each day. The IC50 values were measured after 5 d.

[3] = molecular target: T1, glucose-6-phosphate translocase (Rattus norvegicus, UniProt F7EWB7); assay: G6Pase activity assay in intact male rat liver microsomes (colorimetric inorganic phosphate); assay type: biochemical; settings: for Inhibition of G6Pase activity of the microsome (Figure 7B): 1 mM glucose-6-phosphate; for Inhibition of G6Pase activity: 10–50 μM range
T1 construct: using intact male rat liver microsomes; tissue BD Gentest (Becton Dickinson); host or cells: male Sprague Dawley rat liver microsomes
T1 sequence (F7EWB7 1-429): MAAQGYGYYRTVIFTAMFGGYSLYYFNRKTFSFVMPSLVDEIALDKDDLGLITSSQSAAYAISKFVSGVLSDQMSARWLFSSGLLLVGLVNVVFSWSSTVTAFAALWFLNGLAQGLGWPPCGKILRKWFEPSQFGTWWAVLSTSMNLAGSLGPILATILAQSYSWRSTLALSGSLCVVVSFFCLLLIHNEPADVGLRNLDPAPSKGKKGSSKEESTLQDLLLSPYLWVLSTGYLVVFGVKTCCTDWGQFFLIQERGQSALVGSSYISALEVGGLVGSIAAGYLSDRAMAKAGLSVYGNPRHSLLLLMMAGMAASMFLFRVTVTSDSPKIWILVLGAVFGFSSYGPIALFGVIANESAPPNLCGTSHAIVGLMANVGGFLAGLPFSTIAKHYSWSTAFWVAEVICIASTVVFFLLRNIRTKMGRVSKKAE
Experimental: Recently, the natural product mumbaistatin (Figure 7A) was identified as an extremely potent inhibitor (IC50 = 5 nM) of the glucose-6-phosphate translocase enzyme complex, an attractive target for the treatment of Type II diabetes ([Vertesy et al. 2001]). The core of mumbaistatin consists of an anthraquinone moiety that is related to several engineered compounds discussed in this report. For example, the carboxylic acid at position C-1 and the reduced C-9 are identical to those present in compounds DMAC, 8, and 9. We tested the inhibitory activities of some of these polyketides against glucose-6-phosphate translocase using intact male rat liver microsomes.
The integrity of the microsomes was first verified by comparing the glucose-6-phosphatase (G6Pase) activity in the presence of either glucose-6-phosphate or mannose-6-phosphate.
Male rat liver microsome (Sprague Dawley) was purchased from BD Gentest^TM (Becton Dickinson, Franklin Lakes, New Jersey, United States). Aliquots (100 μl, 2 mg/ml) in 0.25 M sucrose were stored at –80°C. Compound stock solutions were prepared in 95% ethanol and diluted with DMSO. Glucose-6-phosphate and mannose-6-phosphate were purchased from Sigma (St. Louis, Missouri, United States).
The integrity of microsomes and G6Pase activity was measured based on the colorimetric reaction of inorganic phosphate as previously reported ([Arion 1989]). The enzyme reaction was initiated by adding 3 μl of microsome to the reaction mixture, which contained 51 μl of assay buffer (50 mM HEPES, 100 mM KCl, 2.5 mM EDTA, 2.5 mM MgCl2, and 1 mM DTT at pH 7.2), 3 μl of glucose-6-phosphate (final concentration, 1 mM), and 3 μl of inhibitor sample in DMSO. The reaction mixture was incubated at room temperature, and 13 μl of reaction mixture was taken every 10 min and quenched with 117 μl of working solution (6:2:1 mixture of 0.42% ammonium molybdate tetrahydrate in 1N H2SO4, 10% SDS in water, and 10% ascorbic acid in water). The blue reduced phosphomolybdate complex is formed after incubation at 50°C for 20 min. The absorbance was measured at 820 nm.

[4] = system: human mammary adenocarcinoma MCF-7 cells; set-up: method as in Hori et al. 1993; settings: ref Hori et al. 1993; cited from earlier work
[5] = molecular target: T1, glucose-6-phosphate translocase; settings: rat liver microsomes; reference inhibitor, source not given; read-out: IC50, chlorogenic acid used as reference in the G6Pase assay; cited from earlier work
[6] = molecular target: glucose-6-phosphate translocase enzyme complex; set-up: method as in Vertesy et al. 2001; settings: ref Vertesy et al. 2001; cited from earlier work

SMILES	Inhibition of G6Pase activity of the microsome (Figure 7B) [3]	Inhibition of G6Pase activity [3]	IC50 [2] [mg/L]	other results
CCCCC1=C(c2cc(O)cc(=O)o2)C(=O)CC(O)C1 (stereo not shown) [Compound 1]	–	–	–	Stability of the purified compound [1]: slowly dehydrate
CC(C)CCC1=C(c2cc(O)cc(=O)o2)C(=O)CC(O)C1 (stereo not shown) [Compound 2]	–	–	–	Stability of the purified compound [1]: slowly dehydrate
CCCCc1c(C(=O)O)c(O)cc2c1C(=O)c1c(O)cc(O)cc1C2=O [Compound 3]	Dose-dependent inhibition	Dose-dependent inhibition	3.4 (≈ 9.54 µM)	–
CCCCc1cc(O)cc2c1C(=O)c1c(O)cc(O)cc1C2=O [Compound 5, R1128b]	–	–	–	IC50, cytotoxic activity against MCF-7 cells (natural products) [4]: 9.5 mg/L (≈ 30.4 µM)
CC(C)CCc1cc(O)cc2c1C(=O)c1c(O)cc(O)cc1C2=O [Compound 6, R1128c]	–	–	–	IC50, cytotoxic activity against MCF-7 cells (natural products) [4]: 6.2 mg/L (≈ 19 µM)
O=C(/C=C/c1ccc(O)c(O)c1)O[C@@H]1C[C@](O)(C(=O)O)C[C@@H](O)[C@H]1O [chlorogenic acid]	–	–	–	IC50 [5]: 260 µM
O=C(O)CC(O)CCC(=O)c1cccc(O)c1C(=O)c1c(C(=O)O)c(O)cc2c1C(=O)c1c(O)cccc1C2=O (stereo not shown) [mumbaistatin]	–	–	–	IC50 [6]: 0.005 µM

More lines, main results first:

Inhibition of G6Pase activity of the microsome (Figure 7B) [3]	Inhibition of G6Pase activity [3]	SMILES	IC50 [2] [mg/L]	other results
Dose-dependent inhibition	Dose-dependent inhibition	CC(C)CCc1c(C(=O)O)c(O)cc2c1C(=O)c1c(O)cc(O)cc1C2=O [Compound 4]	1.7 (≈ 4.59 µM)	–
No inhibition	not	Cc1c(C(=O)O)c(O)cc2c1C(=O)c1c(O)cc(O)cc1C2=O [Compound 7, 3,6,8-trihydroxy-1-methylanthraquinone-2-carboxylic acid]	–	–
Dose-dependent inhibition	Dose-dependent inhibition	CCCCc1c(C(=O)O)c(O)cc2c1C(=O)c1c(O)cccc1C2=O [Compound 8]	–	–
Dose-dependent inhibition	Dose-dependent inhibition	CC(C)CCc1c(C(=O)O)c(O)cc2c1C(=O)c1c(O)cccc1C2=O [Compound 9]	21.7 (≈ 61.2 µM)	–
No inhibition	not	Cc1c(C(=O)O)c(O)cc2c1C(=O)c1c(O)cccc1C2=O [DMAC, 3,8-dihydroxy-methylanthraquinone carboxylic acid, reference compound]	26.9 (≈ 90.2 µM)	–
